Test system: MV-4-11 cells
Assay: Gene expression microarray analysis (Affymetrix PrimeView) and GSEA
Type: cell-based, human
Set-up: RFU PODN (11730768_x_at) / Fold change /veh PODN (11730768_x_at) / RFU LINC00158 (11744669_a_at) / Fold change /veh LINC00158 (11744669_a_at) / RFU DUSP10 (11751237_a_at) / Fold change /veh DUSP10 (11751237_a_at) / RFU ID3 (11757404_x_at) / Fold change /veh ID3 (11757404_x_at) / RFU PLEKHG5 (11737974_s_at) / Fold change /veh PLEKHG5 (11737974_s_at) / RFU LRRC4B (11730491_at) / Fold change /veh LRRC4B (11730491_at) / RFU GIMAP4 (11747438_a_at) / Fold change /veh GIMAP4 (11747438_a_at) / RFU KRT8 (11758183_x_at) / Fold change /veh KRT8 (11758183_x_at) / RFU CNN1 (11734310_a_at) / Fold change /veh CNN1 (11734310_a_at) / RFU VPS37D (11726825_at) / Fold change /veh VPS37D (11726825_at) / RFU C10orf10 (11716522_x_at) / Fold change /veh C10orf10 (11716522_x_at) / RFU KIR2DL2 /// KIR2DL4 /// KIR2DL5A /// KIR2DL5B /// KIR2DS1 /// KIR2DS2 /// KIR2DS3 /// KIR2DS4 /// KIR3DL3 /// KIR3DL3 /// KIR3DS1 (11738374_at) / Fold change /veh KIR2DL2 /// KIR2DL4 /// KIR2DL5A /// KIR2DL5B /// KIR2DS1 /// KIR2DS2 /// KIR2DS3 /// KIR2DS4 /// KIR3DL3 /// KIR3DL3 /// KIR3DS1 (11738374_at) / RFU C1QL1 (11718748_at) / Fold change /veh C1QL1 (11718748_at) / RFU TMPRSS4 (11747572_a_at) / Fold change /veh TMPRSS4 (11747572_a_at) / RFU HAMP (11756126_x_at) / Fold change /veh HAMP (11756126_x_at) / RFU RNFT2 (11725882_a_at) / Fold change /veh RNFT2 (11725882_a_at) / RFU NR4A2 (11747474_a_at) / Fold change /veh NR4A2 (11747474_a_at) / RFU ABCC12 (11746883_a_at) / Fold change /veh ABCC12 (11746883_a_at) / RFU TMEM136 (11760407_x_at) / Fold change /veh TMEM136 (11760407_x_at) / RFU CLDN22 /// WWC2 (11732394_at) / Fold change /veh CLDN22 /// WWC2 (11732394_at) / RFU HLA-DPB1 (11760878_x_at) / Fold change /veh HLA-DPB1 (11760878_x_at) / RFU SPINT1 (11716480_a_at) / Fold change /veh SPINT1 (11716480_a_at) / RFU GAP43 (11754022_s_at) / Fold change /veh GAP43 (11754022_s_at) / RFU A4GNT (11735810_at) / Fold change /veh A4GNT (11735810_at) / RFU PRB3 (11715151_x_at) / Fold change /veh PRB3 (11715151_x_at) / RFU TUBB4B (11761932_at) / Fold change /veh TUBB4B (11761932_at) / RFU CAPN14 (11732068_a_at) / Fold change /veh CAPN14 (11732068_a_at) / RFU TMCC2 (11721928_a_at) / Fold change /veh TMCC2 (11721928_a_at) / RFU IRGQ (11745062_a_at) / Fold change /veh IRGQ (11745062_a_at) / RFU FAM174B (11720279_a_at) / Fold change /veh FAM174B (11720279_a_at) / RFU TMPRSS4 (11748680_a_at) / Fold change /veh TMPRSS4 (11748680_a_at) / RFU FAM212B (11763350_a_at) / Fold change /veh FAM212B (11763350_a_at) / RFU PLEKHG5 (11743358_a_at) / Fold change /veh PLEKHG5 (11743358_a_at) / RFU ZSCAN30 (11745921_a_at) / Fold change /veh ZSCAN30 (11745921_a_at) / RFU CMKLR1 (11741424_a_at) / Fold change /veh CMKLR1 (11741424_a_at) / RFU LOC101060620 /// MAPK8IP1 (11723275_at) / Fold change /veh LOC101060620 /// MAPK8IP1 (11723275_at) / RFU SPTSSB (11747773_x_at) / Fold change /veh SPTSSB (11747773_x_at) / RFU PRSS12 (11739890_at) / Fold change /veh PRSS12 (11739890_at) / RFU BIN1 (11741810_x_at) / Fold change /veh BIN1 (11741810_x_at) / RFU WNT11 (11732464_a_at) / Fold change /veh WNT11 (11732464_a_at) / RFU C10orf10 (11716521_a_at) / Fold change /veh C10orf10 (11716521_a_at) / RFU C5orf56 (11738089_at) / Fold change /veh C5orf56 (11738089_at) / RFU CYB561 (11721691_x_at) / Fold change /veh CYB561 (11721691_x_at) / RFU ANKRD19P (11752326_a_at) / Fold change /veh ANKRD19P (11752326_a_at) / RFU OR2T12 /// OR2T33 /// OR2T8 (11738714_s_at) / Fold change /veh OR2T12 /// OR2T33 /// OR2T8 (11738714_s_at) / RFU VCAN (11748164_a_at) / Fold change /veh VCAN (11748164_a_at) / RFU JSRP1 (11732532_at) / Fold change /veh JSRP1 (11732532_at) / RFU KRTAP10-11 (11738290_x_at) / Fold change /veh KRTAP10-11 (11738290_x_at) / RFU MYO3A (11730013_a_at) / Fold change /veh MYO3A (11730013_a_at) / RFU EBF3 (11725865_a_at) / Fold change /veh EBF3 (11725865_a_at) / RFU CAMK2N1 (11719241_x_at) / Fold change /veh CAMK2N1 (11719241_x_at) / RFU C5orf56 (11738088_a_at) / Fold change /veh C5orf56 (11738088_a_at) / RFU OLFML3 (11715873_a_at) / Fold change /veh OLFML3 (11715873_a_at) / RFU LOC100653217 /// NTM (11731650_a_at) / Fold change /veh LOC100653217 /// NTM (11731650_a_at) / RFU MAPK11 (11762145_a_at) / Fold change /veh MAPK11 (11762145_a_at) / RFU FIZ1 (11724087_x_at) / Fold change /veh FIZ1 (11724087_x_at) / RFU OASL (11726364_x_at) / Fold change /veh OASL (11726364_x_at) / RFU SOX15 (11748057_x_at) / Fold change /veh SOX15 (11748057_x_at) / RFU CD79A (11719716_a_at) / Fold change /veh CD79A (11719716_a_at) / RFU HIST1H1D (11736915_at) / Fold change /veh HIST1H1D (11736915_at) / RFU CASKIN2 (11723855_a_at) / Fold change /veh CASKIN2 (11723855_a_at) / RFU LOC730098 (11760151_x_at) / Fold change /veh LOC730098 (11760151_x_at) / RFU OR4N2 (11742367_at) / Fold change /veh OR4N2 (11742367_at) / RFU PRRT2 (11749266_a_at) / Fold change /veh PRRT2 (11749266_a_at) / RFU SNX32 (11753110_a_at) / Fold change /veh SNX32 (11753110_a_at) / RFU CDHR5 (11726645_a_at) / Fold change /veh CDHR5 (11726645_a_at) / RFU RCAN1 (11760418_a_at) / Fold change /veh RCAN1 (11760418_a_at) / RFU FAM167A (11723789_a_at) / Fold change /veh FAM167A (11723789_a_at) / RFU FAM26E (11764081_at) / Fold change /veh FAM26E (11764081_at) / RFU ISYNA1 (11749810_s_at) / Fold change /veh ISYNA1 (11749810_s_at) / RFU ACY1 (11761880_at) / Fold change /veh ACY1 (11761880_at) / RFU 11764098_at / Fold change /veh 11764098_at / RFU SAMD14 (11745864_x_at) / Fold change /veh SAMD14 (11745864_x_at) / RFU NPB (11741838_a_at) / Fold change /veh NPB (11741838_a_at) / RFU TMPRSS6 (11731388_a_at) / Fold change /veh TMPRSS6 (11731388_a_at) / RFU KRTAP10-2 (11738614_at) / Fold change /veh KRTAP10-2 (11738614_at) / RFU ARHGAP8 /// PRR5-ARHGAP8 (11727945_x_at) / Fold change /veh ARHGAP8 /// PRR5-ARHGAP8 (11727945_x_at) / RFU KRTAP5-7 /// NADSYN1 (11734609_at) / Fold change /veh KRTAP5-7 /// NADSYN1 (11734609_at) / RFU RASL12 (11751679_a_at) / Fold change /veh RASL12 (11751679_a_at) / RFU CDKN2B (11736163_a_at) / Fold change /veh CDKN2B (11736163_a_at) / RFU PRF1 (11729649_at) / Fold change /veh PRF1 (11729649_at) / RFU, ZNF638 /// ZNF638-IT1 / Fold change vs veh, ZNF638 /// ZNF638-IT1 / RFU, PANK3 / Fold change vs veh, PANK3 / RFU, SH3YL1 / Fold change vs veh, SH3YL1 / RFU, ZEB2 / Fold change vs veh, ZEB2 / RFU, NRIP1 / Fold change vs veh, NRIP1 / RFU, PTTG1IP / Fold change vs veh, PTTG1IP / RFU, CAPN2 / Fold change vs veh, CAPN2 / RFU, MED14 / Fold change vs veh, MED14 / RFU, SNORA58 / Fold change vs veh, SNORA58 / RFU, C1orf63 / Fold change vs veh, C1orf63 / RFU, LRRFIP1 / Fold change vs veh, LRRFIP1 / RFU, NDUFAF7 / Fold change vs veh, NDUFAF7 / RFU, SLC12A2 / Fold change vs veh, SLC12A2 / RFU, IBTK / Fold change vs veh, IBTK / RFU, ESF1 / Fold change vs veh, ESF1 / Fold change vs veh, TMEM50B / RFU, TAOK1 / Fold change vs veh, TAOK1 / RFU, ACBD3 / Fold change vs veh, ACBD3 / RFU, TMA16 / Fold change vs veh, TMA16 / RFU, RWDD3 / Fold change vs veh, RWDD3 / RFU, BCAT1 / Fold change vs veh, BCAT1 / RFU, EDEM3 / Fold change vs veh, EDEM3 / RFU, TMEM33 / Fold change vs veh, TMEM33 / RFU, WDR75 / Fold change vs veh, WDR75 / RFU, AHCTF1 / Fold change vs veh, AHCTF1 / RFU, TFRC / Fold change vs veh, TFRC / RFU, ZDHHC17 / Fold change vs veh, ZDHHC17 / RFU, NOM1 / Fold change vs veh, NOM1 / RFU, ARL8B / Fold change vs veh, ARL8B / RFU, ZBTB11 / Fold change vs veh, ZBTB11 / RFU, TAMM41 / Fold change vs veh, TAMM41 / RFU, KIAA1704 /// LOC100996395 / Fold change vs veh, KIAA1704 /// LOC100996395 / RFU, ING1 / Fold change vs veh, ING1 / RFU, TRMT61B / Fold change vs veh, TRMT61B / RFU, FUBP3 / Fold change vs veh, FUBP3 / RFU, TP53 / Fold change vs veh, TP53 / RFU, TNKS2 / Fold change vs veh, TNKS2 / RFU, ZFP14 / Fold change vs veh, ZFP14 / RFU, ACTR2 / Fold change vs veh, ACTR2 / RFU, PPP3R1 / Fold change vs veh, PPP3R1 / RFU, PIK3R1 / Fold change vs veh, PIK3R1 / RFU, HNRNPA1 / Fold change vs veh, HNRNPA1 / RFU, RNF170 / Fold change vs veh, RNF170 / RFU, ZNF28 / Fold change vs veh, ZNF28 / RFU, RNGTT / Fold change vs veh, RNGTT / RFU, OGT / Fold change vs veh, OGT / RFU, BRD1 / Fold change vs veh, BRD1 / RFU, MARS / Fold change vs veh, MARS / RFU, ZNF655 / Fold change vs veh, ZNF655 / RFU, FAHD1 / Fold change vs veh, FAHD1 / RFU, BDP1 / Fold change vs veh, BDP1 / RFU, LRRCC1 / Fold change vs veh, LRRCC1 / RFU, ARID1A / Fold change vs veh, ARID1A / RFU, ZNF146 / Fold change vs veh, ZNF146 / RFU, ZNF330 / Fold change vs veh, ZNF330 / RFU, GPN3 / Fold change vs veh, GPN3 / RFU, C9orf123 / Fold change vs veh, C9orf123 / RFU, N4BP2L2 / Fold change vs veh, N4BP2L2 / RFU, ARFIP1 / Fold change vs veh, ARFIP1 / RFU, FAM179B / Fold change vs veh, FAM179B / RFU, BCL10 / Fold change vs veh, BCL10 / RFU, UHRF1BP1L / Fold change vs veh, UHRF1BP1L / RFU, BET1 / Fold change vs veh, BET1 / RFU, CNOT2 / Fold change vs veh, CNOT2 / RFU, ZNF268 / Fold change vs veh, ZNF268 / Fold change vs veh, ZNF507 / RFU, DGCR2 / Fold change vs veh, DGCR2 / RFU, WDSUB1 / Fold change vs veh, WDSUB1 / Fold change vs veh, HSP90B1 /// MIR3652 / RFU, ADSS / Fold change vs veh, ADSS / RFU, GK / Fold change vs veh, GK / RFU, ZNF148 / Fold change vs veh, ZNF148 / RFU, TAF9 / Fold change vs veh, TAF9 / RFU, SLC1A5 / Fold change vs veh, SLC1A5 / RFU, SLMO2 / Fold change vs veh, SLMO2 / RFU, ABCC4 / Fold change vs veh, ABCC4 / RFU, LOC101060439 /// RAP1B / Fold change vs veh, LOC101060439 /// RAP1B / RFU, RFX7 / Fold change vs veh, RFX7 / RFU, GTPBP10 / Fold change vs veh, GTPBP10 / RFU, CNEP1R1 / Fold change vs veh, CNEP1R1 / RFU, BIVM-ERCC5 /// ERCC5 / Fold change vs veh, BIVM-ERCC5 /// ERCC5 / RFU, ILF3 / Fold change vs veh, ILF3 / RFU 11762660_at / Fold change /veh 11762660_at / RFU VCAN (11757783_s_at) / Fold change /veh VCAN (11757783_s_at) / RFU DDX43 (11728927_at) / Fold change /veh DDX43 (11728927_at) / RFU KRT8 (11758188_x_at) / Fold change /veh KRT8 (11758188_x_at) / RFU NKD1 (11759106_at) / Fold change /veh NKD1 (11759106_at) / RFU SRD5A1 (11742802_a_at) / Fold change /veh SRD5A1 (11742802_a_at) / RFU TPSAB1 /// TPSB2 (11721975_s_at) / Fold change /veh TPSAB1 /// TPSB2 (11721975_s_at) / RFU GSTM3 (11746129_a_at) / Fold change /veh GSTM3 (11746129_a_at) / RFU IL23R (11737362_x_at) / Fold change /veh IL23R (11737362_x_at) / RFU TMEM51 (11727254_a_at) / Fold change /veh TMEM51 (11727254_a_at) / RFU PIWIL2 (11732686_x_at) / Fold change /veh PIWIL2 (11732686_x_at) / RFU ORM1 (11744905_x_at) / Fold change /veh ORM1 (11744905_x_at) / RFU CCDC152 (11743942_at) / Fold change /veh CCDC152 (11743942_at) / RFU ECM1 (11717891_a_at) / Fold change /veh ECM1 (11717891_a_at) / RFU IL23R (11748794_a_at) / Fold change /veh IL23R (11748794_a_at) / RFU TNFAIP8L3 (11732012_x_at) / Fold change /veh TNFAIP8L3 (11732012_x_at) / RFU MBOAT4 (11741988_at) / Fold change /veh MBOAT4 (11741988_at) / RFU 11764193_at / Fold change /veh 11764193_at / RFU TMEM53 (11763286_at) / Fold change /veh TMEM53 (11763286_at) / RFU MAGEB2 (11727129_at) / Fold change /veh MAGEB2 (11727129_at) / RFU TMEM200A (11744735_a_at) / Fold change /veh TMEM200A (11744735_a_at) / RFU CCDC152 (11751479_a_at) / Fold change /veh CCDC152 (11751479_a_at) / RFU FAM211A (11726209_a_at) / Fold change /veh FAM211A (11726209_a_at) / RFU RGS16 (11746705_a_at) / Fold change /veh RGS16 (11746705_a_at) / RFU VCAN (11755009_s_at) / Fold change /veh VCAN (11755009_s_at) / RFU RHOB (11743442_s_at) / Fold change /veh RHOB (11743442_s_at) / RFU RGS16 (11720943_a_at) / Fold change /veh RGS16 (11720943_a_at) / RFU RGS16 (11720944_at) / Fold change /veh RGS16 (11720944_at) / RFU, VPS4B / Fold change vs veh, VPS4B / RFU, CREB1 / Fold change vs veh, CREB1 / RFU, DNAJC13 / Fold change vs veh, DNAJC13 / RFU, GNAQ / Fold change vs veh, GNAQ / RFU, CDK5R1 / Fold change vs veh, CDK5R1 / RFU, ZRANB3 / Fold change vs veh, ZRANB3 / RFU, CUL4A / Fold change vs veh, CUL4A / RFU, CCNY / Fold change vs veh, CCNY / RFU, UFL1 / Fold change vs veh, UFL1 / RFU, COG3 / Fold change vs veh, COG3 / RFU, DIAPH2 / Fold change vs veh, DIAPH2 / RFU, SKA2 / Fold change vs veh, SKA2 / RFU, AFF3 / Fold change vs veh, AFF3 / RFU, LMF1 / Fold change vs veh, LMF1 / RFU, IPO11 / Fold change vs veh, IPO11 / RFU, DFFB / Fold change vs veh, DFFB / RFU, FOXP1 / Fold change vs veh, FOXP1 / RFU, CARD8 / Fold change vs veh, CARD8 / RFU, STRN3 / Fold change vs veh, STRN3 / RFU, ADK / Fold change vs veh, ADK / RFU, RASSF2 / Fold change vs veh, RASSF2 / RFU, WIPF1 / Fold change vs veh, WIPF1 / RFU, LARP1B / Fold change vs veh, LARP1B / RFU, RASA1 / Fold change vs veh, RASA1 / RFU, RB1 / Fold change vs veh, RB1 / RFU, PPFIA1 / Fold change vs veh, PPFIA1 / RFU, MAT2A / Fold change vs veh, MAT2A / RFU, CCT5 / Fold change vs veh, CCT5 / RFU, WDR92 / Fold change vs veh, WDR92 / RFU, CUX1 / Fold change vs veh, CUX1 / RFU, TTC7A / Fold change vs veh, TTC7A / RFU, TMEM135 / Fold change vs veh, TMEM135 / RFU, DEPTOR / Fold change vs veh, DEPTOR / RFU, CPM / Fold change vs veh, CPM / RFU, DNAJB6 / Fold change vs veh, DNAJB6 / RFU, CACNA2D3 / Fold change vs veh, CACNA2D3 / RFU, DTX4 / Fold change vs veh, DTX4 / RFU, TFCP2 / Fold change vs veh, TFCP2 / RFU, GMCL1 /// GMCL1P1 / Fold change vs veh, GMCL1 /// GMCL1P1 / RFU, AEBP2 / Fold change vs veh, AEBP2 / RFU, SNHG1 /// SNORD22 /// SNORD25 /// SNORD26 /// SNORD27 /// SNORD28 /// SNORD29 /// SNORD31 / Fold change vs veh, SNHG1 /// SNORD22 /// SNORD25 /// SNORD26 /// SNORD27 /// SNORD28 /// SNORD29 /// SNORD31 / Fold change (Aza/veh), C12orf56 (ProbeSet 11735607_a_at) / Fold change (ACY-1035/veh), C12orf56 (ProbeSet 11735607_a_at) / Fold change (Aza/veh), FGFR1OP (ProbeSet 11751329_s_at) / Fold change (ACY-1035/veh), FGFR1OP (ProbeSet 11751329_s_at) / Fold change (Aza/veh), VPS36 (ProbeSet 11739960_a_at) / Fold change (ACY-1035/veh), VPS36 (ProbeSet 11739960_a_at) / RFU SYPL1 (11715823_x_at) / Fold change /veh SYPL1 (11715823_x_at) / RFU IGFBP7 (11715501_s_at) / Fold change /veh IGFBP7 (11715501_s_at) / RFU REEP3 (11722064_at) / Fold change /veh REEP3 (11722064_at) / RFU IGLL1 (11728026_x_at) / Fold change /veh IGLL1 (11728026_x_at): dose or concentration left out as unconfirmed
Settings: MV-4-11 cells, 48 hours

Compound: Nc1ncn([C@@H]2O[C@H](CO)[C@@H](O)[C@H]2O)c(=O)n1 [azacitidine]
- RFU IGFBP7 (11715501_s_at): 202.56 RFU
